Test results reported in ChEMBL document CHEMBL1156829 (Proc Natl Acad Sci U S A, 2008).

How the values were obtained:
[1] = NOVARTIS: Cytotoxicity against human hepatocellular carcinoma cell line (Huh7); assay type: toxicity, cell-based, Huh-7; details: Huh7 cells (hepatocellular carcinoma cell line)
[2] = tested on: Plasmodium falciparum; test: NOVARTIS: Inhibition of Plasmodium falciparum W2 (drug-resistant) proliferation in erythrocyte-based infection assay; assay type: functional, organism-based; details: read-out: EC50
[3] = tested on: Plasmodium falciparum; test: NOVARTIS: Inhibition of Plasmodium falciparum 3D7 (drug-susceptible) proliferation in erythrocyte-based infection assay; assay type: functional, organism-based

Row | SMILES | CC50 [1] [nM] | EC50 ([2]; Plasmodium falciparum, W2) [nM] | EC50 ([3]; Plasmodium falciparum, 3D7) [nM] | EC50 [2] [nM] | EC50 [3] [nM]
1 | CC(=O)Nc1cc(C(F)(F)F)cc(C(F)(F)F)c1 | > 10000 | 711 | 1310 | – | –
2 | CC(C)CC1=Nc2cc(C(=O)NC(C)C)ccc2CN1Cc1ccccc1 | > 10000 | > 1250 | > 1030 | – | –
3 | CCCCN(CC(=O)Nc1cc(C(C)(C)C)nn1-c1ccc(Cl)cc1)C(=O)c1ccc(OC)cc1 | 5080 | 52.7 | > 1390 | – | –
4 | Nc1ccc2nc(-c3cccc(-c4nc5ccc(N)cc5s4)c3)sc2c1 | > 100000 | 995 | 283 | – | –
5 | Cn1c(C(C#N)C(=S)NC2CCCCC2)nc2cccnc21 (centres undefined) | > 10000 | > 894 | > 1250 | – | –
6 | COc1ccc(CNC(=O)CCc2cn(Cc3cc(C)ccc3C)c3ccccc23)cc1OC | > 10000 | > 1250 | > 842 | – | –
7 | COc1ccc(C2=C(c3ccc(OC)cc3)C3(c4ccccc4)C(=O)C2(c2ccccc2)C2C(=O)N(c4ccc(F)cc4)C(=O)C23)cc1 (centres undefined) | > 100000 | 3350 | 2240 | – | –
8 | Clc1ccc(-c2nc3cc(Cl)cnc3[nH]2)cc1 | > 8520 | > 1250 | 565 | – | –
9 | CCOc1cc(Br)cc(/C=C2\NC(=S)NC2=O)c1O | > 10000 | > 973 | > 1250 | – | –
10 | O=C(c1ccc([N+](=O)[O-])cc1)C1C(C(=O)c2ccc(F)cc2)C2(C(=O)Nc3ccccc32)C2C=Cc3ccccc3N12 (centres undefined) | > 10000 | 188 | > 622 | – | –
11 | c1ccc(Cc2nc(NCc3ccc4c(c3)OCO4)c3c4c(sc3n2)CCCC4)cc1 | > 10000 | > 1130 | > 1250 | – | –
12 | CN(CCCNc1ccnc2cc(Cl)ccc12)C(=O)c1cccc(C(F)(F)F)c1 | > 2550 | 278 | 85.1 | – | –
13 | COc1cc(C=C(C#N)c2nc3ccccc3[nH]2)ccc1OCc1ccc(C)cc1 | > 100000 | 328 | 684 | – | –
14 | CCCCCCN(C(=O)c1ccc(C(C)(C)C)cc1)C(CC)c1nc2ccccc2c(=O)n1-c1ccc(F)cc1 (centres undefined) | > 10000 | 1020 | 795 | – | –
15 | Cc1cc(C)c(S(=O)(=O)NCc2ccc(Cl)cc2)c(C)c1 | 48900 | 6590 | > 12500 | – | –
16 | Cc1ccc(-c2cc(C(=O)OCC(=O)c3cccc([N+](=O)[O-])c3)c3cc(C)ccc3n2)cc1 | > 100000 | 1090 | > 12500 | – | –
17 | O=C(Nc1ccccc1Cl)c1cc2ccccc2cc1O | > 100000 | 298 | 327 | – | –

Row | SMILES | CC50 [1] [nM] | EC50 ([2]; Plasmodium falciparum, W2) [nM] | EC50 ([3]; Plasmodium falciparum, 3D7) [nM] | EC50 [2] [nM] | EC50 [3] [nM]
18 | CC(C)CC(N)C(=O)NCCCNc1nsc2ccccc12 (centres undefined) | 15900 | > 12100 | 2820 | – | –
19 | CC1=C[C@H]2O[C@@H]3C[C@H]4OC(=O)C=CC=C[C@H]([C@@H](C)O)OCC[C@@H](C)[C@H](O)C(=O)OC[C@@]2(CC1)[C@]4(C)[C@@]31CO1 | 6.04 | – | – | < 0.572 | < 0.572
20 | Cc1cc(CNC(=O)CC2C(=O)NCCN2Cc2ccccc2C(F)(F)F)nn1C (centres undefined) | > 10000 | > 1250 | > 27.4 | – | –
21 | CCCC1=[N+](CC(=O)c2ccc(C)cc2)CCn2c(C)ccc21 | > 10000 | > 618 | 792 | – | –
22 | O=C1C(Nc2ccccc2)=C(N2CCCCC2)C(=O)c2ccccc21 | 15000 | 590 | 383 | – | –
23 | Cc1cc(NC(=O)c2ccc(Br)cc2)no1 | > 10000 | 1910 | > 1250 | – | –
24 | N=C(NN=Cc1ccc([N+](=O)[O-])cc1)NN=Cc1ccc([N+](=O)[O-])cc1 | > 100000 | 271 | 280 | – | –
25 | CCOC(=O)C1=C(C)NC2=C(C(=O)CC(c3ccc(OC)c(OC)c3)C2)C1c1ccc(Br)cc1 (centres undefined) | > 100000 | 4.81 | 18.2 | – | –
26 | O=C(Nc1cccc(OC(=O)c2ccc([N+](=O)[O-])cc2)c1)c1ccc([N+](=O)[O-])cc1 | > 100000 | 270 | > 12500 | – | –
27 | CCCCCN(C(=O)c1cccc([N+](=O)[O-])c1)C(CC)c1nc2ccccc2c(=O)n1-c1ccccc1OC (centres undefined) | > 10000 | 591 | > 1250 | – | –
28 | CC(C)NC(=O)c1ccc2c(c1)N=C(/C=C/c1ccccc1)N(CC1CCCCC1)C2 | > 10200 | 696 | > 1250 | – | –
29 | CCOc1cc(Br)cc(C=C2NC(=S)NC2=O)c1O | > 100000 | 554 | > 3680 | – | –
30 | CC[C@H]1CN2CCc3cc(OC)c(OC)cc3[C@@H]2C[C@@H]1C[C@H]1NCCc2cc(OC)c(OC)cc21 [EMETINE] | 116 | 22.9 | 10.1 | – | –
31 | OC(CN1CCOCC1)Cn1cnc2c(SCc3ccccc3)ncnc21 (centres undefined) | > 100000 | > 9670 | > 12500 | – | –
32 | COC1=CC(=O)c2c(ccc3c(OC)c(O)ccc23)C1=O | > 10000 | 302 | 200 | – | –
33 | COc1ccc2[nH]c(SCC(=O)Nc3cccc(NC(=O)CSc4nc5cc(OC)ccc5[nH]4)n3)nc2c1 | > 51000 | 95.4 | 123 | – | –
